Results on one compound are retold here after patent US12396983B2, “Composition comprising rilmenidine compound as active ingredient for treatment of fragile X syndrome or related developmental disability” (NEUROVENTI, priority 2020, dated 2025).

Experiment [1] relates to animal model treated with MK-801 in wild-type mice. Put plainly: novel object recognition test in MK-801 treated animal model. In kind it is in vivo, mouse. To be noted: wild-type mice treated with MK-801 and then rilmenidine (0.3 mg/kg), test 24 hours after training, FIG. 3. The procedure: The cognitive improvement effect of rilmenidine was confirmed using an animal model treated with MK-801 in wild-type mice. The experiment was a novel object recognition test, where two identical objects were placed in the same location and trained, and 24 hours later, one identical object (familiar) and the other new object (novel) were put in, and the cognitive ability of the animal was tested by evaluating whether they could distinguish between familiar and new objects.

Experiment [2] has as its system animal model lacking Cntnap2. Description: three-chamber test, social preference (novel vs familiar mouse) in Cntnap2-deficient autism animal model. To be noted: Cntnap2-deficient mice treated with rilmenidine, FIG. 5. Format: in vivo. The protocol:
To confirm the therapeutic effect of rilmenidine on social deficits, one of the phenotypes of developmental disorders, a three-chamber test was performed using an animal model lacking Cntnap2. FIG. 5 is a result of evaluating whether or not the time spent with a novel mouse is longer than that of a familiar mouse after exploring a stimulus mouse (familiar) for 10 minutes in the experimental animal, and after adding a new stimulus mouse (novel) together for 10 minutes. In this case, the old mouse is called familiar, and the new mouse is called novel. […] Experimental results were expressed as a preference index by measuring the time the test mouse explores each mouse or the sniffing time to each mouse. The higher the preference index, the more time spent with the novel mouse than with the familiar mouse, or the more time spent sniffing with the novel mouse than with the familiar mouse. […] Through this, it was confirmed that rilmenidine treatment can improve sociability (FIG. 5).

The subject of experiment [3] is animal model treated with MK-801 in wild-type mice. Description: pre-pulse suppression (startle response) test in MK-801 treated animal model. In kind it is in vivo, mouse. Particulars: wild-type mice treated with MK-801 and then rilmenidine intraperitoneally, FIG. 2. The procedure:
The startle response was confirmed in an animal model treated with MK-801 in wild-type mice. Mice were divided into groups, and 0.9% physiological saline (saline solution), rilmenidine, or a positive control drug (aripiprazole) was intraperitoneally administered to each group. Then, sensorimotor gating was evaluated through a pre-wave suppression test (converted using Equation 1). […] Pre-pulse suppression (%)=100−[(startle response to pre-stimulus+stimulus)/(startle response to stimulus)]*100 [Equation 1] Confirmation of Cognitive Improvement Effect of Rilmenidine

In experiment [4] the test system is animal model lacking Cntnap2. Put plainly: three-chamber test, sociability index in Cntnap2-deficient autism animal model. In kind it is in vivo, mouse. To be noted: Cntnap2-deficient mice treated with rilmenidine, FIG. 4. The procedure: To confirm the therapeutic effect of rilmenidine on social deficits, one of the phenotypes of developmental disorders, a three-chamber test was performed using an animal model lacking Cntnap2. The sociability index of FIG. 4 represents a value obtained by dividing stranger (retention time for a mouse) by empty (retention time for an empty space).

Experiment [5] concerns Fmr1-deficient animal model. Description: three-chamber test, sociability in fragile X syndrome animal model. Format: in vivo. Particulars: rilmenidine intraperitoneally (1 mg/kg / 50 ug/kg printed), 30 minutes after administration, FIG. 1. The procedure: Purchased a 5-week-old Fmr 1 knockout mouse (Jackson Laboratory, USA) weighing about 22 g to 24 g, and acclimatized to an environment with a temperature of 23±2° C. and humidity of 55±10% and a light-dark cycle of 12 hours while allowing them to freely consume water and feed. After breeding (Konkuk University Laboratory Animal Center), they were used for experiments. For all animals, wild-type (WT) with normal FMRP expression and male KO mice lacking FMRP (Fragile X mental retardation protein) expression (which induces Fragile X Syndrome (FXS)) were used. Dosing and experiments were performed according to the age of the week. Dosing was performed at the same time. Behavioral experiments were conducted 30 minutes after administration. It was divided into groups administered with 1 mg/kg each of rilmenidine (Sigma Aldrich) in FMRP expression-deficient knock-out (Knock-Out) mice, wild-type (Wild Type) mice, and 0.25 DMSO in FMRP expression-deficient knock-out mice (6 mice per group). For the drug administration group, rilmenidine was dissolved in 0.25% DMSO and then administered intraperitoneally at a dose of 50 ug/kg. Meanwhile, 0.25% DMSO was intraperitoneally administered to the control group. […] The time the test mouse explored each stimulus mouse was measured and expressed as %.

In the case of `C1COC(NC(C2CC2)C2CC2)=N1` [rilmenidine, N-(dicyclopropylmethyl)-4,5-dihydro-1,3-oxazol-2-amine], the “ability to distinguish novel object from familiar object (cognitive improvement)” value in experiment [1] is listed as “the ability to distinguish novel objects was improved”. Further, in experiment [2], the “preference index: sniffing time to novel mouse vs familiar mouse” value is listed as “sniffed more” and the “preference index: time spent with novel mouse vs familiar mouse” value is listed as “spent more time”. For the same compound, the pre-pulse suppression result in experiment [3] was “the reduced pre-pulse suppression was restored”. Besides, in experiment [4], the “sociability index: retention time for mouse (stranger) vs empty space” value is recorded as “the retention time for the mouse was longer than the retention time for the empty space”. The “time the test mouse explored novel vs familiar stimulus mouse (sociability)” value in experiment [5] is “more time was spent with the novel mouse than with the familiar mouse”.
